Assay results taken from patent US7101878B1 (Agouron Pharmaceuticals, Inc., priority 1998, dated 2006).

Molecular target: T1, mouse GnRH receptor (Mus musculus, UniProt Q01776)
T1 construct: expressed in transfected cells; host or cells: 293 cells
T1 sequence (Q01776 1-327): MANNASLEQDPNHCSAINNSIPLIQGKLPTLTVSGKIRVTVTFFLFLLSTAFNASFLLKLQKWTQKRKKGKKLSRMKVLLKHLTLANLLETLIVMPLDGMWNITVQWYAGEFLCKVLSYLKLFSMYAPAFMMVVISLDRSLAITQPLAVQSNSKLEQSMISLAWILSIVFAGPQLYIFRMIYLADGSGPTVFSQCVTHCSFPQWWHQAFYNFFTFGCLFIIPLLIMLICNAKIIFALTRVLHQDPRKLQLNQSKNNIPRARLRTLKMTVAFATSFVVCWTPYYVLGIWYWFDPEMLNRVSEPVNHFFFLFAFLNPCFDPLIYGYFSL
Experiment: Radioligand binding, 125I-GnRH-A, 293 cells expressing mouse GnRH receptors
Details: 10 uM
Procedure, shortened: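 Bound label captured on 0.1% polyethyleneimine-treated GF/C filters, washed three times with PBS, counted. IC50 derived; identical set-up for every species.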

% Inhib. @ 10 uM mGnRH	SMILES
103%	Cc1cc2c(cc1Cc1ccc(C(=O)NC(CO)C(C)C)o1)C(C)(C)CCC2(C)C (centres unmarked) [drawing 1479]

Same assay, conditions: 10 uM; read-out: % Inhib. @ 10 uM mGnRH

SMILES	inhibition at 10 µM
Cc1cc2c(cc1Cc1ccc(C(=O)N(CCC(c3ccccc3)c3ccccc3)C(C)c3ccccc3)o1)C(C)(C)CCC2(C)C (centres unmarked)	30%
Cc1cc2c(cc1Cc1ccc(C(=O)N(Cc3ccc(O)cc3)C3CCN(Cc4ccccc4)C3)o1)C(C)(C)CCC2(C)C (centres unmarked)	82%
CSCCC(CO)NC(=O)c1ccc(Cc2cc3c(cc2C)C(C)(C)CCC3(C)C)o1 (centres unmarked) [drawing 1580]	105%
Cc1cc2c(cc1Cc1ccc(C(=O)N(Cc3ccco3)C3CC(=O)N(C)C3=O)o1)C(C)(C)CCC2(C)C (centres unmarked) [drawing 1504]	69%
CCN1CC(NC(=O)c2ccc(Cc3cc4c(cc3C)C(C)(C)CCC4(C)C)o2)CN1CC	91%
CCOC(=O)N1CCN(C(=O)c2ccc(Cc3cc4c(cc3C)C(C)(C)CCC4(C)C)o2)CC1 [drawing 1530]	65%
CCC(C)CN(CCO)C(=O)c1ccc(Cc2cc3c(cc2C)C(C)(C)CCC3(C)C)o1 (centres unmarked)	101%
CCN(CC)CCN1CCN(C(=O)c2ccc(Cc3cc4c(cc3C)C(C)(C)CCC4(C)C)o2)CC1	98%
Cc1cc2c(cc1Cc1ccc(C(=O)N(Cc3cccnc3)Cc3cccc4ccccc34)o1)C(C)(C)CCC2(C)C	79%
Cc1cc2c(cc1Cc1ccc(C(=O)N3CCN(C(c4ccc(F)cc4)c4ccc(F)cc4)CC3)o1)C(C)(C)CCC2(C)C	16%
Cc1cc2c(cc1Cc1ccc(C(=O)N(C)C3CCN(C)C3)o1)C(C)(C)CCC2(C)C (centres unmarked)	89%
Cc1cc2c(cc1Cc1ccc(C(=O)N3CCC(C#N)(c4ccccc4)CC3)o1)C(C)(C)CCC2(C)C	40%
CCOC(CN(Cc1ccncc1)C(=O)c1ccc(Cc2cc3c(cc2C)C(C)(C)CCC3(C)C)o1)OCC	31%
Cc1cc2c(cc1Cc1ccc(C(=O)N(C)C3CCCCC3)o1)C(C)(C)CCC2(C)C	97%
Cc1cc2c(cc1Cc1ccc(C(=O)NC(C)CCCC(C)C)o1)C(C)(C)CCC2(C)C (centres unmarked) [drawing 1447]	72%
Cc1cc2c(cc1Cc1ccc(C(=O)NCc3cccc(CNC(=O)C(Cc4ccccc4)c4ccccc4)c3)o1)C(C)(C)CCC2(C)C (centres unmarked) [drawing 1571]	47%
CC(=O)NC1CCN(C(=O)c2ccc(Cc3cc4c(cc3C)C(C)(C)CCC4(C)C)o2)C1 (centres unmarked)	63%

SMILES	inhibition at 10 µM
CC(=O)N1CCCN(C(=O)c2ccc(Cc3cc4c(cc3C)C(C)(C)CCC4(C)C)o2)CC1 [drawing 1503]	73%
Cc1cc2c(cc1Cc1ccc(C(=O)N3CC4(C)CC3CC(C)(C)C4)o1)C(C)(C)CCC2(C)C (centres unmarked)	100%
CCOC(=O)CC1C(=O)NCCN1C(=O)c1ccc(Cc2cc3c(cc2C)C(C)(C)CCC3(C)C)o1 (centres unmarked)	98%
CCN(CC)C(=O)C1CCCN(C(=O)c2ccc(Cc3cc4c(cc3C)C(C)(C)CCC4(C)C)o2)C1 (centres unmarked)	21%
COc1ccccc1N1CCN(C(=O)c2ccc(Cc3cc4c(cc3C)C(C)(C)CCC4(C)C)o2)CC1 [drawing 1421]	73%
Cc1cc2c(cc1Cc1ccc(C(=O)N3CCC(O)(c4ccc(Br)cc4)CC3)o1)C(C)(C)CCC2(C)C [drawing 1512]	49%
Cc1cc2c(cc1Cc1ccc(C(=O)N(CCCc3ccccc3)Cc3ccc(Oc4ccccc4)cc3)o1)C(C)(C)CCC2(C)C	17%
Cc1cc2c(cc1Cc1ccc(C(=O)N3CCC(N4CCCC4)CC3)o1)C(C)(C)CCC2(C)C [drawing 1458]	96%
Cc1cccc(N2CCN(C(=O)c3ccc(Cc4cc5c(cc4C)C(C)(C)CCC5(C)C)o3)CC2C)c1 (centres unmarked) [drawing 1520]	73%
Cc1cc2c(cc1Cc1ccc(C(=O)N3CCCCC3CCN3CCCCC3)o1)C(C)(C)CCC2(C)C (centres unmarked)	103%
Cc1cc2c(cc1Cc1ccc(C(=O)N3CCC(O)(Cc4ccccc4)CC3)o1)C(C)(C)CCC2(C)C	67%
Cc1cc2c(cc1Cc1ccc(C(=O)N3CCN(CCCN(C)C)CC3)o1)C(C)(C)CCC2(C)C	96%
Cc1cc2c(cc1Cc1ccc(C(=O)N(Cc3ccco3)C3CCN(Cc4ccccc4)C3)o1)C(C)(C)CCC2(C)C (centres unmarked) [drawing 1559]	94%
Cc1cc2c(cc1Cc1ccc(C(=O)NC3CCC3)o1)C(C)(C)CCC2(C)C [drawing 1456]	60%
CCOC(=O)CC(C)(NC(N)=O)NC(=O)c1ccc(Cc2cc3c(cc2C)C(C)(C)CCC3(C)C)o1 (centres unmarked)	25%
Cc1cc2c(cc1Cc1ccc(C(=O)N3CCN(C4CCCCC4)CC3)o1)C(C)(C)CCC2(C)C [drawing 1265]	102%
Cc1cc2c(cc1Cc1ccc(C(=O)N(CCCN3CCN(C)CC3)Cc3cc(C)n(-c4cccc(C(F)(F)F)c4)c3C)o1)C(C)(C)CCC2(C)C [drawing 1488]	102%

Results, then the compound that gave them:

inhibition at 10 µM	SMILES
98%	Cc1cc2c(cc1Cc1ccc(C(=O)N(Cc3ccccc3)Cc3ccccn3)o1)C(C)(C)CCC2(C)C
79%	Cc1cc2c(cc1Cc1ccc(C(=O)NCCc3ccc(F)cc3)o1)C(C)(C)CCC2(C)C [drawing 1574]
97%	Cc1cc2c(cc1Cc1ccc(C(=O)N(Cc3cccnc3)CC(C)c3ccccc3)o1)C(C)(C)CCC2(C)C (centres unmarked)
98%	Cc1cc2c(cc1Cc1ccc(C(=O)N(C)C3CCN(Cc4ccccc4)C3)o1)C(C)(C)CCC2(C)C (centres unmarked)
73%	Cc1cc2c(cc1Cc1ccc(C(=O)NCCc3ccccc3)o1)C(C)(C)CCC2(C)C [drawing 1452]
83%	Cc1cc2c(cc1Cc1ccc(C(=O)N(C)CCC#N)o1)C(C)(C)CCC2(C)C [drawing 1531]
93%	C=C(C)CNC(=O)c1ccc(Cc2cc3c(cc2C)C(C)(C)CCC3(C)C)o1 [drawing 1573]
101%	CCN(CC)CCCCNC(=O)c1ccc(Cc2cc3c(cc2C)C(C)(C)CCC3(C)C)o1
49%	CCN(C(=O)c1ccc(Cc2cc3c(cc2C)C(C)(C)CCC3(C)C)o1)C1C2CCC3CC32C1c1ccccc1 (centres unmarked)

Same assay, conditions: 1 h, substrate remaining; 10 uM compound; closer to zero = closer to 100% inhibition; read-out: S%R 10 uM mGnRHR

SMILES	remaining activity at 10 µM
Cc1cc2c(cc1Cc1ccc(C(=O)NCc3cccc(NC(=O)NC(Cc4ccccc4)c4ccccc4)c3)o1)C(C)(C)CCC2(C)C (centres unmarked) [Compound 682]	59%
Cc1cc2c(cc1Cc1ccc(C(=O)NCc3cccc(NC(=O)N(Cc4ccccc4)c4ccccc4)c3)o1)C(C)(C)CCC2(C)C [Compound 511]	47%
Cc1cc2c(cc1Cc1ccc(C(=O)NC3(CO)CCCC3)o1)C(C)(C)CCC2(C)C [Compound 550]	3%
Cc1cc2c(cc1Cc1ccc(C(=O)N3CCC(CNC(=O)C(F)(F)F)CC3)o1)C(C)(C)CCC2(C)C [Compound 698]	59%
Cc1cc2c(cc1Cc1ccc(C(=O)NC(CCCNC(N)N)C(=O)O)o1)C(C)(C)CCC2(C)C (centres unmarked) [Compound 459]	53%
Cc1cc2c(cc1Cc1ccc(C(=O)NCC3CCN(C(N)N)CC3)o1)C(C)(C)CCC2(C)C [Compound 522]	9%
COc1cc(CCNC(=O)c2ccc(Cc3cc4c(cc3C)C(C)(C)CCC4(C)C)o2)cc(OC)c1O [Compound 506]	3%
COc1cccc(N2CCN(C(=O)c3ccc(Cc4cc5c(cc4C)C(C)(C)CCC5(C)C)o3)CC2)c1 [Compound 553]	34%
Cc1cc2c(cc1Cc1ccc(C(=O)N3CCC(C(N)=O)CC3)o1)C(C)(C)CCC2(C)C [Compound 463]	-5%
COCC(C)NC(=O)c1ccc(Cc2cc3c(cc2C)C(C)(C)CCC3(C)C)o1 (centres unmarked) [Compound 557]	10%
Cc1cc2c(cc1Cc1ccc(C(=O)NC(C)(C)CO)o1)C(C)(C)CCC2(C)C [Compound 633]	10%
COC(OC)C(C)NC(=O)c1ccc(Cc2cc3c(cc2C)C(C)(C)CCC3(C)C)o1 (centres unmarked) [Compound 662]	3%

Now from value to compound:

remaining activity at 10 µM	SMILES
39%	COc1ccc(C(=O)CNC(=O)c2ccc(Cc3cc4c(cc3C)C(C)(C)CCC4(C)C)o2)cc1 [Compound 474]
51%	Cc1cc2c(cc1Cc1ccc(C(=O)NCc3ccc(S(N)(=O)=O)cc3)o1)C(C)(C)CCC2(C)C [Compound 521]
11%	CCC(CO)NC(=O)c1ccc(Cc2cc3c(cc2C)C(C)(C)CCC3(C)C)o1 (centres unmarked) [Compound 597]
23%	Cc1cc2c(cc1Cc1ccc(C(=O)NCC(F)(F)F)o1)C(C)(C)CCC2(C)C [Compound 510]
0%	CCN(CC)CCCNC(=O)c1ccc(Cc2cc3c(cc2C)C(C)(C)CCC3(C)C)o1 [Compound 707]
-4%	Cc1cc2c(cc1Cc1ccc(C(=O)NCCc3ccccn3)o1)C(C)(C)CCC2(C)C [Compound 507]
0%	Cc1cc2c(cc1Cc1ccc(C(=O)NCCCN(C)c3ccccc3)o1)C(C)(C)CCC2(C)C [Compound 462]
-12%	Cc1cc2c(cc1Cc1ccc(C(=O)NCCC3CCCN3C)o1)C(C)(C)CCC2(C)C (centres unmarked) [Compound 456]
-3%	Cc1cc2c(cc1Cc1ccc(C(=O)N(CCN(C)C)Cc3cccc4ccccc34)o1)C(C)(C)CCC2(C)C [Compound 575]
30%	Cc1cc2c(cc1Cc1ccc(C(=O)N3CCc4ccccc4C3)o1)C(C)(C)CCC2(C)C [Compound 562]
-4%	Cc1cc2c(cc1Cc1ccc(C(=O)NCCC3OCCO3)o1)C(C)(C)CCC2(C)C [Compound 676]
6%	Cc1cc2c(cc1Cc1ccc(C(=O)NCCc3c[nH]c4ccccc34)o1)C(C)(C)CCC2(C)C [Compound 470]
